# Biological target: Pseudomonas aeruginosa LpxC enzyme (Pseudomonas aeruginosa (strain ATCC 15692 / DSM 22644 / CIP 104116 / JCM 14847 / LMG 12228 / 1C / PRS 101 / PAO1), UniProt P47205)
# Assay: biochemical
# Assay type: biochemical
# Conditions: inhibitory activity on Pseudomonas aeruginosa LpxC enzyme, class symbols A/B/C; read-out: Enzyme inhibitory activity
row,SMILES,IC50 [µM]
1,"CNC(=O)C(C(=O)NO)N(C)C(=O)c1ccc(-c2ccc(CNC(C)=O)cc2)cc1 (centres unmarked) [Compound 241, 2-[({4′-[(acetylamino)methyl]biphenyl-4-yl}carbonyl)(methyl)amino]-N-hydroxy-N′-methylpropanediamide]",0.01 to 0.1
2,"CNC(=O)C(C(=O)NO)N(C)C(=O)c1ccc(C#Cc2ccccc2)cn1 (centres unmarked) [Compound 455, N-hydroxy-N′-methyl-2-(methyl {[5-(phenylethynyl)pyridin-2-yl]carbonyl}amino)propanediamide]",> 0.1
3,"CNC(=O)C(C(=O)NO)N(C)C(=O)c1ccc(-c2ccc(Cc3nn[nH]n3)cc2)cc1 (centres unmarked) [Compound 60, N-hydroxy-N′-methyl-2-(methyl {[4′-(2H-tetrazol-5-ylmethyl)biphenyl-4-yl]carbonyl}amino)propanediamide]",> 0.1
4,"CN(C(=O)c1ccc(-c2ccccc2)cc1)C(C(=O)NO)C(=O)NCCc1ccccc1 (centres unmarked) [Compound 76, 2-[(biphenyl-4-ylcarbonyl)(methyl)amino]-N-hydroxy-N′-(2-phenylethyl)propanediamide]",> 0.1
5,"CNC(=O)C(C(=O)NO)N(C)C(=O)c1ccc(-c2ccc(O)cc2)cc1 (centres unmarked) [Compound 49, N-hydroxy-2-{[(4′-hydroxybiphenyl-4-yl)carbonyl](methyl)amino}-N′-methylpropanediamide]",0.01 to 0.1
6,"CNC(=O)C(NC(=O)c1ccc(-c2ccc(NCCO)cc2)cc1)C(=O)NO (centres unmarked) [Compound 114, N-hydroxy-2-[({4′-[(2-hydroxyethyl)amino]biphenyl-4-yl}carbonyl)amino]-N′-methylpropanediamide]",0.01 to 0.1
7,"CC(=O)N(C)CCNC(=O)C(NC(=O)c1ccc(-c2ccc(OCCO)cc2)cc1)C(=O)NO (centres unmarked) [Compound 145, N-{2-[acetyl(methyl)amino]ethyl}-N′-hydroxy-2-({[4′-(2-hydroxyethoxy)biphenyl-4-yl]carbonyl}amino)propanediamide]",0.01 to 0.1
8,"CNC(=O)C(C(=O)NO)N(C)C(=O)c1ccc(-c2ccc(CN3CCOCC3)cc2)cc1 (centres unmarked) [Compound 232, N-hydroxy-N′-methyl-2-(methyl {[4′-(morpholin-4-ylmethyl)biphenyl-4-yl]carbonyl}amino)propanediamide]",0.01 to 0.1
9,"CNC(=O)C(C(=O)NO)N(C)C(=O)c1ccc(-c2ccc(C3(C)OCCO3)cc2)cc1 (centres unmarked) [Compound 254, N-hydroxy-N′-methyl-2-(methyl {[4′-(2-methyl-1,3-dioxolan-2-yl)biphenyl-4-yl]carbonyl}amino)propanediamide]",0.01 to 0.1
10,"CNC(=O)C(C(=O)NO)N(C)C(=O)c1ccc(-c2cccc(OC)n2)cc1 (centres unmarked) [Compound 296, N-hydroxy-2-[{[4-(6-methoxypyridin-2-yl)phenyl]carbonyl}(methyl)amino]-N′-methylpropanediamide]",> 0.1
11,"CNC(=O)C(C(=O)NO)N(OC)C(=O)c1ccc(-c2ccccc2)cc1 (centres unmarked) [Compound 17, 2-[(biphenyl-4-ylcarbonyl)(methoxy)amino]-N-hydroxy-N′-methylpropanediamide]",0.01 to 0.1
12,"CNC(=O)C(C(=O)NO)N(C)C(=O)c1ccc(OCC#Cc2ccccc2)cc1 (centres unmarked) [Compound 453, N-hydroxy-N′-methyl-2-[methyl({4-[(3-phenylprop-2-yn-1-yl)oxy]phenyl}carbonyl)amino]propanediamide]",0.01 to 0.1
13,"CNC(=O)C(C(=O)NO)N(C)C(=O)c1ccc(C#Cc2ccn(C)c2)cc1 (centres unmarked) [Compound 424, N-hydroxy-N′-methyl-2-[methyl({4-[(1-methyl-1H-pyrrol-3-yl)ethynyl]phenyl}carbonyl)amino]propanediamide]",0.01 to 0.1
14,"CNC(=O)C(C(=O)NO)N(C)C(=O)c1ccc(-c2ccccc2)cc1O (centres unmarked) [Compound 24, N-hydroxy-2-{[(3-hydroxybiphenyl-4-yl)carbonyl](methyl)amino}-N′-methylpropanediamide]",> 0.1
15,"CCNC(=O)C(NC(=O)c1ccc(-c2ccc(OCCO)cc2)cc1)C(=O)NO (centres unmarked) [Compound 139, N-ethyl-N′-hydroxy-2-({[4′-(2-hydroxyethoxy)biphenyl-4-yl]carbonyl}amino)propanediamide]",0.01 to 0.1

# Second part, the molecule after the results:
row,IC50 [µM],SMILES
1,0.01 to 0.1,"CNC(=O)C(C(=O)NO)N(C)C(=O)c1ccc(-c2ccsc2)cc1 (centres unmarked) [Compound 292, N-hydroxy-N′-methyl-2-(methyl {[4-(thiophen-3-yl)phenyl]carbonyl}amino)propanediamide]"
2,0.01 to 0.1,"CNC(=O)C(C(=O)NO)N(C)C(=O)c1ccc(-c2cnc3ccccc3c2)cc1 (centres unmarked) [Compound 192, N-hydroxy-N′-methyl-2-{methyl[4-(quinolin-3-yl)benzoyl]amino}propanediamide]"
3,< 0.01,"CNC(=O)C(C(=O)NO)N(C)C(=O)c1ccc(-c2ccc(OC(C)C)cc2)cc1 (centres unmarked) [Compound 213, N-hydroxy-N′-methyl-2-(methyl {[4′-(propan-2-yloxy)biphenyl-4-yl]carbonyl}amino)propanediamide]"
4,< 0.01,"CNC(=O)C(NC(=O)c1ccc(-c2ccc(OCCCN3CCCOCC3)cc2)cc1)C(=O)NO (centres unmarked) [Compound 112, N-hydroxy-N′-methyl-2-[({4′-[3-(1,4-oxazepan-4-yl)propoxy]biphenyl-4-yl}carbonyl)amino]propanediamide]"
5,< 0.01,"CNC(=O)C(C(=O)NO)N(C)C(=O)c1ccc(C#Cc2ccc(CNCc3cc(C)on3)cc2)cc1 (centres unmarked) [Compound 482, N-hydroxy-N′-methyl-2-{methyl[(4-{[4-({[(5-methyl-1,2-oxazol-3-yl)methyl]amino}methyl)phenyl]ethynyl}phenyl)carbonyl]amino}propanediamide]"
6,< 0.01,"Cc1cc(CNC(=O)C(NC(=O)c2ccc(-c3ccc(OCCO)cc3)cc2)C(=O)NO)no1 (centres unmarked) [Compound 133, N-hydroxy-2-({[4′-(2-hydroxyethoxy)biphenyl-4-yl]carbonyl}amino)-N′-[(5-methyl-1,2-oxazol-3-yl)methyl]propanediamide]"
7,< 0.01,"CNC(=O)C(C(=O)NO)N(C)C(=O)c1ccc(C#Cc2ccc(CNCCS(C)(=O)=O)cc2)cc1 (centres unmarked) [Compound 378, N-hydroxy-N′-methyl-2-{methyl[(4-{[4-({[2-(methylsulfonyl)ethyl]amino}methyl)phenyl]ethynyl}phenyl)carbonyl]amino}propanediamide]"
8,< 0.01,"O=C(NC(C(=O)NO)C(=O)NCc1ccco1)c1ccc(-c2ccc(OCCO)cc2)cc1 (centres unmarked) [Compound 12, N-(furan-2-ylmethyl)-N′-hydroxy-2-({[4′-(2-hydroxyethoxy)biphenyl-4-yl]carbonyl}amino)propanediamide]"
9,< 0.01,"CSCCNC(=O)C(NC(=O)c1ccc(-c2ccc(OCCO)cc2)cc1)C(=O)NO (centres unmarked) [Compound 132, N-hydroxy-2-({[4′-(2-hydroxyethoxy)biphenyl-4-yl]carbonyl}amino)-N′-[2-(methylsulfanyl)ethyl]propanediamide]"
10,< 0.01,"CNC(=O)C(C(=O)NO)N(C)C(=O)c1ccc(C#Cc2ccc(OCCCN3CCOCC3)cc2)cc1 (centres unmarked) [Compound 465, N-hydroxy-N′-methyl-2-(methyl {[4-({4-[3-(morpholin-4-yl)propoxy]phenyl}ethynyl)phenyl]carbonyl}amino)propanediamide]"
11,< 0.01,"CNC(=O)C(C(=O)NO)N(C)C(=O)c1ccc(-c2ccc(OCCCn3ccnc3)cc2)cc1 (centres unmarked) [Compound 96, N-hydroxy-2-[({4′-[3-(1H-imidazol-1-yl)propoxy]biphenyl-4-yl}carbonyl)(methyl)amino]-N′-methylpropanediamide]"
12,< 0.01,"CNC(=O)C(C(=O)NO)N(C)C(=O)c1ccc(-c2ccc(NCc3cccnc3)cc2)cc1 (centres unmarked) [Compound 65, N-hydroxy-N′-methyl-2-[methyl({4′-[(pyridin-3-ylmethyl)amino]biphenyl-4-yl}carbonyl)amino]propanediamide]"
13,< 0.01,"O=C(NC(C(=O)NO)C(=O)NCC1COc2ccccc2O1)c1ccc(-c2ccc(OCCO)cc2)cc1 (centres unmarked) [Compound 149, N-(2,3-dihydro-1,4-benzodioxin-2-ylmethyl)-N′-hydroxy-2-({[4′-(2-hydroxyethoxy)biphenyl-4-yl]carbonyl}amino)propanediamide]"
14,< 0.01,"CNC(=O)C(C)(C(=O)NO)N(C)C(=O)c1ccc(-c2ccc(OC)cc2)cc1 (centres unmarked) [Compound 348, N-hydroxy-2-{[(4′-methoxybiphenyl-4-yl)carbonyl](methyl)amino}-N′,2-dimethylpropanediamide]"
15,< 0.01,"CNC(=O)C(C(=O)NO)N(C)C(=O)c1ccc(C#Cc2ccc(CCN3CCOCC3)cc2)cc1 (centres unmarked) [Compound 206, N-hydroxy-N′-methyl-2-{methyl[4-({4-[2-(morpholin-4-yl)ethyl]phenyl}ethynyl)benzoyl]amino}propanediamide]"
16,< 0.01,"CNC(=O)C(C(=O)NO)N(C)C(=O)c1ccc(C#CC#Cc2ccc(CN3CCN(C)CC3)cc2)cc1 (centres unmarked) [Compound 492, N-hydroxy-N′-methyl-2-(methyl {[4-(4-{4-[(4-methylpiperazin-1-yl)methyl]phenyl}buta-1,3-diyn-1-yl)phenyl]carbonyl}amino)propanediamide]"
17,< 0.01,"CNC(=O)C(C(=O)NO)N(C)C(=O)c1ccc(CCc2ccc(CCN3CCOCC3)cc2)cc1 (centres unmarked) [Compound 209, N-hydroxy-N′-methyl-2-{methyl[4-(2-{4-[2-(morpholin-4-yl)ethyl]phenyl}ethyl)benzoyl]amino}propanediamide]"
18,< 0.01,"CCC(F)(F)c1ccc(-c2ccc(C(=O)N(C)C(C(=O)NC)C(=O)NO)cc2)cc1 (centres unmarked) [Compound 251, 2-[{[4′-(1,1-difluoropropyl)biphenyl-4-yl]carbonyl}(methyl)amino]-N-hydroxy-N′-methylpropanediamide]"
19,< 0.01,"CNC(=O)C(C(=O)NO)N(C)C(=O)c1ccc(-c2ccc(OCc3coc(C)n3)cc2)cc1 (centres unmarked) [Compound 99, N-hydroxy-N′-methyl-2-[methyl({4′-[(2-methyl-1,3-oxazol-4-yl)methoxy]biphenyl-4-yl}carbonyl)amino]propanediamide]"
20,< 0.01,"O=C(NC(C(=O)NO)C(=O)NCCCc1ccccc1)c1ccc(-c2ccc(OCCO)cc2)cc1 (centres unmarked) [Compound 126, N-hydroxy-2-({[4′-(2-hydroxyethoxy)biphenyl-4-yl]carbonyl}amino)-N′-(3-phenylpropyl)propanediamide]"
